# Publication PMC12226733, “Evolution of iGluR ligand specificity, polyamine regulation, and ion selectivity inferred from a placozoan epsilon receptor” (Communications Biology, 2025)
# Values joined by “and” are separate entries in the source; they are usually repeats but may differ in a detail not shown here. Equal values may be shown once.
# What was measured:
# [1] = molecular target: T1, GluA2(Q) wt + γ2 (Homo sapiens, UniProt P42262); test: outside-out patch clamp, block by intracellular spermine, HEK-293T/17 cells; assay type: biochemical; details: for Normalized conductance (Gnorm) GluA2 wild type + γ2 / Normalized current (Inorm) GluA2 wild type + γ2: single recordings and AVG;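 on Normalized conductance (Gnorm) GluA2 wild type + γ2: normalized to each receptor's own maximal conductance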
# T1 construct: expressed in transfected cells; host or cells: HEK-293T/17
# Experimental: (§1) Parallel experiments were carried out in human GluA2 homotetramers bearing equivalent Q/R/N and +4 site mutations to compare the regulation of voltage-dependent polyamine block within the broader context of mammalian receptors. Experimental design remained the same, except for using 10 mM glutamate as the agonist used to evoke membrane currents (Fig. 7a, d, g, and j). […] Their properties were accordingly compared to wildtype GluA2(Q) co-expressed with TARP-γ2.
# (§2) HEK-293T/17 cells (ATCC) were maintained in MEM supplemented with GlutaMAX and 10% fetal bovine serum (FBS) at 37 °C and 5% CO2. […] Transient transfections were carried out 48 h post-plating using the calcium phosphate precipitation method. After 6–8 hours, cells were washed twice with PBS and maintained in fresh medium. Cells transfected with mammalian GluA2 cDNA (plasmid vector described above) were returned to an incubator at 37 °C for 24–48 hours and cells transfected with Epsilon GluE1αA were incubated at 28 °C for 48–72 hours. In cells co-transfected with TARP-γ2, 30 μM NBQX was included in the medium to minimize AMPAR/auxiliary-induced cytotoxicity. All constructs were co-transfected with a plasmid encoding enhanced green fluorescent protein (eGFP) to identify transfected cells. Electrophysiology responses were recorded from outside-out patches excised from transfected cells. Recording pipettes were composed of borosilicate glass (3 to 6 megaohm, King Precision Glass) coated with dental wax to reduce electrical noise. All recordings were performed using Axopatch 200B amplifier (Molecular Devices, LLC). Current records were filtered at 5 or 10 kHz and sampled at 25–50 kHz. Series resistance (3 to 12 megaohms) was compensated by 95%. Recordings were performed at a range of holding potentials from −100 mV to 100 mV to study polyamine block. Data was acquired using pClamp9 software (Molecular Devices, LLC). All experiments were performed at room temperature. All chemicals were purchased from Sigma-Aldrich, unless otherwise indicated. External solution contained (in mM): 150 NaCl, 5 HEPES, 0.1 CaCl2, 0.1 MgCl, and […], pH 7.3–7.4. […] The osmotic pressure of all solutions was adjusted to 295 to 300 mOsm with sucrose. […] Stocks were thawed on the day of the experiment and used to prepared agonist-containing external solutions. Raw data for all electrophysiology experiments are provided in Supplementary Data 3. Current-voltage (I-V) relationships were fit using Origin 7 (OriginLab) using a ninth order polynomial function to estimate the reversal potential (Vrev).
# (§3) Agonist-evoked membrane conductance (G) was calculated using the following equation: G=I/(V−Vrev)
# (§4) Conductance-voltage (G-V) relationships were fit using Origin 7 (OriginLab) with the single permeant blocker model as done previously[46]: G=Gmax/1+[Spm]/Kd Where Gmax is the maximal conductance, [Spm] is the internal Spm concentration, and Kd is the dissociation constant.
# (§5) Kd is defined as: Kd=koff+kperm/kon=sumofexitrates/bindingrate
# (§6) And redefined as: Kd=g*exp(V/h)+L*exp(V/k) Where h and k are voltage dependencies of g and L, respectively, and at 0 mV: g=koff/konandL=kperm/kon
# [2] = molecular target: T2, GluA2 D611A + γ2 (Homo sapiens, UniProt P42262, D611A); test: as above; assay type: biochemical; details: for Normalized conductance (Gnorm) AMPA D611A + γ2 / Normalized current (Inorm) AMPA D611A + γ2: single recordings and AVG
# T2 construct: expressed in transfected cells; host or cells: HEK-293T/17
# Experimental: as §1, §2, §3, §4, §5, §6
# T2 sequence (P42262 25-883 D611A): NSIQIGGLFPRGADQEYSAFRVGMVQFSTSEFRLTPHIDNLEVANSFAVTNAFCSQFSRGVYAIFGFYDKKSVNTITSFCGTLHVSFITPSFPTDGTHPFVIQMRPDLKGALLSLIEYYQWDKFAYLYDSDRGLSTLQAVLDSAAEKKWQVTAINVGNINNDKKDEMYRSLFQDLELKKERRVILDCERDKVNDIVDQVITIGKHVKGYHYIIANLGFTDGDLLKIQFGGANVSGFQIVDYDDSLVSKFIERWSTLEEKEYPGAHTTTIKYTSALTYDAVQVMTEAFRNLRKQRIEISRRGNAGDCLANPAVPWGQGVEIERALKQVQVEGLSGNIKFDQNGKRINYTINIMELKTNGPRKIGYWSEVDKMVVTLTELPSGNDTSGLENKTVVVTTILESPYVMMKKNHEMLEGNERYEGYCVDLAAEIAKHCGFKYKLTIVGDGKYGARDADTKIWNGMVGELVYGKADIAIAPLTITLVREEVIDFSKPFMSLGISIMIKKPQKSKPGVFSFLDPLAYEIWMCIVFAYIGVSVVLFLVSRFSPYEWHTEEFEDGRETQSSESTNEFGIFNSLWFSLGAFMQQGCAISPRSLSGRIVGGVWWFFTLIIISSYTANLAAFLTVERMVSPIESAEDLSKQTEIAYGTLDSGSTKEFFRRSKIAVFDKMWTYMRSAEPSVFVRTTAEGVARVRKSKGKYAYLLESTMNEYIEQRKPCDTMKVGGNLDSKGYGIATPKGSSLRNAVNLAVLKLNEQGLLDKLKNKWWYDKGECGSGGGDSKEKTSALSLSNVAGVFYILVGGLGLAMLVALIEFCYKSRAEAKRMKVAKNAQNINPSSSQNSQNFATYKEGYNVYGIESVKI
# T2 sequence (Q9Y698 whole entry partner): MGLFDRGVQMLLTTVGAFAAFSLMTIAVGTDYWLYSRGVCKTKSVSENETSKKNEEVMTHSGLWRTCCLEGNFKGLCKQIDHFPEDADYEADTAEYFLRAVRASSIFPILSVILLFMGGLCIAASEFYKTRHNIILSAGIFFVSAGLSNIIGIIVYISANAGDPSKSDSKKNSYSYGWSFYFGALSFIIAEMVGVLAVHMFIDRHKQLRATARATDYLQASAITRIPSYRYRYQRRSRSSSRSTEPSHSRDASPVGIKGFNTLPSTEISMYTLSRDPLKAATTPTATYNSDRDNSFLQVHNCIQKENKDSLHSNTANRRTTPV
# T1 sequence (P42262 25-883): as the sequence (P42262 25-883 D611A) above, with A587D counted along it
# T1 sequence (Q9Y698 whole entry partner): as the sequence (Q9Y698 whole entry partner) above
structure (smiles),measurement,setting,value
NCCCNCCCCNCCCN [spermine],Normalized conductance (Gnorm) GluA2 wild type + γ2,[1]; 0 mV,0.51 and 0.59 and 0.49 and 0.67 and 0.55 and 0.56
same,Normalized conductance (Gnorm) GluA2 wild type + γ2,[1]; 10 mV,0.45 and 0.34 and 0.59 and 0.41
same,Normalized current (Inorm) GluA2 wild type + γ2,[1]; 10 mV,0.0271 and 0.03 and 0.0219 and 0.0374 and 0.0215 and 0.0279
same,Normalized conductance (Gnorm) GluA2 wild type + γ2,[1]; 20 mV,0.46 and 0.44 and 0.31 and 0.56 and 0.39 and 0.43
same,Normalized current (Inorm) GluA2 wild type + γ2,[1]; 20 mV,0.06 and 0.0741 and 0.05 and 0.09 and 0.07
same,Normalized conductance (Gnorm) GluA2 wild type + γ2,[1]; 30 mV,0.53 and 0.56 and 0.39 and 0.59 and 0.50 and 0.51
same,Normalized current (Inorm) GluA2 wild type + γ2,[1]; 30 mV,0.12 and 0.15 and 0.10 and 0.13
same,Normalized conductance (Gnorm) GluA2 wild type + γ2,[1]; 40 mV,0.62 and 0.71 and 0.51 and 0.66 and 0.63
same,Normalized current (Inorm) GluA2 wild type + γ2,[1]; 40 mV,0.20 and 0.26 and 0.18 and 0.23 and 0.22
same,Normalized conductance (Gnorm) GluA2 wild type + γ2,[1]; 50 mV,0.72 and 0.83 and 0.63 and 0.75 and 0.82
same,Normalized current (Inorm) GluA2 wild type + γ2,[1]; 50 mV,0.30 and 0.38 and 0.28 and 0.34 and 0.37 and 0.33
same,Normalized conductance (Gnorm) GluA2 wild type + γ2,[1]; 60 mV,0.78 and 0.91 and 0.73 and 0.84 and 0.90 and 0.83
same,Normalized current (Inorm) GluA2 wild type + γ2,[1]; 60 mV,0.39 and 0.50 and 0.46 and 0.45
same,Normalized conductance (Gnorm) GluA2 wild type + γ2,[1]; 70 mV,0.82 and 0.96 and 0.81 and 0.89 and 0.95
same,Normalized current (Inorm) GluA2 wild type + γ2,[1]; 70 mV,0.49 and 0.62 and 0.51 and 0.57
same,Normalized conductance (Gnorm) GluA2 wild type + γ2,[1]; 80 mV,0.83 and 1.04 and 0.88 and 0.91 and 0.99 and 0.93
same,Normalized current (Inorm) GluA2 wild type + γ2,[1]; 80 mV,0.57 and 0.78 and 0.64 and 0.67 and 0.75 and 0.68
same,Normalized conductance (Gnorm) GluA2 wild type + γ2,[1]; 90 mV,0.86 and 0.93 and 1.02 and 0.94
same,Normalized current (Inorm) GluA2 wild type + γ2,[1]; 90 mV,0.68 and 0.77 and 0.73 and 0.87 and 0.76
same,Normalized current (Inorm) GluA2 wild type + γ2,[1]; 100 mV,0.71 and 0.89 and 0.76 and 1.01 and 0.84
same,Normalized conductance (Gnorm) GluA2 wild type + γ2,[1]; -10 mV,0.69 and 0.62 and 0.75
same,Normalized current (Inorm) GluA2 wild type + γ2,[1]; -10 mV,-0.0852
same,Normalized conductance (Gnorm) GluA2 wild type + γ2,[1]; -20 mV,0.78 and 0.82 and 0.74 and 0.85 and 0.80
same,Normalized conductance (Gnorm) GluA2 wild type + γ2,[1]; -30 mV,0.84 and 0.88 and 0.83 and 0.85 and 0.92 and 0.86
same,Normalized conductance (Gnorm) GluA2 wild type + γ2,[1]; -40 mV,0.90 and 0.92 and 0.89 and 0.96 and 0.91
same,Normalized conductance (Gnorm) GluA2 wild type + γ2,[1]; -50 mV,0.96 and 0.94 and 0.92 and 0.93 and 0.98 and 0.95
same,Normalized conductance (Gnorm) GluA2 wild type + γ2,[1]; -60 mV,0.99 and 0.97 and 0.98
same,Normalized conductance (Gnorm) GluA2 wild type + γ2,[1]; -70 mV,1.01 and 0.98 and 0.99 and 0.97 and 0.96
same,Normalized conductance (Gnorm) GluA2 wild type + γ2,[1]; -80 mV,1.01 and 0.98 and 1.00 and 0.99
same,Normalized conductance (Gnorm) GluA2 wild type + γ2,[1]; -90 mV,1.00 and 0.99 and 0.98
same,Normalized conductance (Gnorm) GluA2 wild type + γ2,[1]; -100 mV,1.02 and 1.00 and 0.95
same,Normalized current (Inorm) GluA2 wild type + γ2,[1]; -100 mV,-1.00
same,"h, voltage dependency of block onset",[1]; GluA2(Q) wt + γ2,−16.7 ± 1.9 mV
same,"k, voltage dependency of block relief",[1]; GluA2(Q) wt + γ2,18.2 ± 3.0 mV
same,Kd,"[1]; GluA2(Q) wt + γ2, 30 µM internal Spm, 10 mM glutamate, read-out: Kd(0mV)",38.4 ± 11.9 µM
same,h,"[1]; fit of Gnorm vs voltage, GluA2 wild type + γ2, single recordings",-13.23
same,Normalized conductance (Gnorm) AMPA D611A + γ2,[2]; 0 mV,0.81 and 0.75 and 0.86 and 0.99 and 0.85
same,Normalized conductance (Gnorm) AMPA D611A + γ2,[2]; 10 mV,0.83 and 0.76 and 0.89 and 0.84
same,Normalized current (Inorm) AMPA D611A + γ2,[2]; 10 mV,0.05 and 0.0569 and 0.06 and 0.0738
same,Normalized conductance (Gnorm) AMPA D611A + γ2,[2]; 20 mV,0.86 and 0.79 and 0.92 and 0.87
same,Normalized current (Inorm) AMPA D611A + γ2,[2]; 20 mV,0.15 and 0.14 and 0.17
same,Normalized conductance (Gnorm) AMPA D611A + γ2,[2]; 30 mV,0.92 and 0.81 and 0.94 and 0.90
same,Normalized current (Inorm) AMPA D611A + γ2,[2]; 30 mV,0.26 and 0.22 and 0.25 and 0.27
same,Normalized conductance (Gnorm) AMPA D611A + γ2,[2]; 40 mV,0.93 and 0.87 and 0.95 and 0.91
same,Normalized current (Inorm) AMPA D611A + γ2,[2]; 40 mV,0.36 and 0.33 and 0.32 and 0.37 and 0.35
same,Normalized conductance (Gnorm) AMPA D611A + γ2,[2]; 50 mV,0.97 and 0.91 and 0.99 and 0.92 and 0.95
same,Normalized current (Inorm) AMPA D611A + γ2,[2]; 50 mV,0.49 and 0.44 and 0.47 and 0.45 and 0.46
same,Normalized conductance (Gnorm) AMPA D611A + γ2,[2]; 60 mV,0.94 and 0.96 and 0.99
same,Normalized current (Inorm) AMPA D611A + γ2,[2]; 60 mV,0.57 and 0.55 and 0.56
same,Normalized conductance (Gnorm) AMPA D611A + γ2,[2]; 70 mV,0.98 and 1.00 and 0.92 and 0.99 and 0.97
same,Normalized current (Inorm) AMPA D611A + γ2,[2]; 70 mV,0.71 and 0.68 and 0.62 and 0.67
same,Normalized conductance (Gnorm) AMPA D611A + γ2,[2]; 80 mV,0.99 and 0.97 and 1.04 and 1.00
same,Normalized current (Inorm) AMPA D611A + γ2,[2]; 80 mV,0.82 and 0.76 and 0.81 and 0.78 and 0.79
same,Normalized conductance (Gnorm) AMPA D611A + γ2,[2]; 90 mV,1.00 and 0.88 and 0.98 and 0.95
same,Normalized current (Inorm) AMPA D611A + γ2,[2]; 90 mV,0.94 and 0.78 and 0.87 and 0.86
same,Normalized conductance (Gnorm) AMPA D611A + γ2,[2]; 100 mV,0.97 and 0.96 and 1.00 and 0.98
same,Normalized current (Inorm) AMPA D611A + γ2,[2]; 100 mV,1.02 and 0.95 and 0.99
same,Normalized conductance (Gnorm) AMPA D611A + γ2,[2]; -10 mV,0.83 and 0.80 and 0.82 and 0.89
same,Normalized conductance (Gnorm) AMPA D611A + γ2,[2]; -20 mV,0.81 and 0.87 and 0.82 and 0.91 and 0.85
same,Normalized conductance (Gnorm) AMPA D611A + γ2,[2]; -30 mV,0.82 and 0.87 and 0.93 and 0.91 and 0.88
same,Normalized conductance (Gnorm) AMPA D611A + γ2,[2]; -40 mV,0.83 and 0.87 and 0.84 and 0.92
same,Normalized conductance (Gnorm) AMPA D611A + γ2,[2]; -50 mV,0.86 and 0.81 and 1.01 and 0.95 and 0.91
same,Normalized conductance (Gnorm) AMPA D611A + γ2,[2]; -60 mV,0.89 and 0.96 and 0.95 and 0.94
same,Normalized conductance (Gnorm) AMPA D611A + γ2,[2]; -70 mV,0.89 and 0.92 and 0.95 and 0.91
same,Normalized conductance (Gnorm) AMPA D611A + γ2,[2]; -80 mV,0.89 and 0.86 and 0.96 and 0.90
same,Normalized conductance (Gnorm) AMPA D611A + γ2,[2]; -90 mV,0.86 and 0.94 and 0.98 and 0.93
same,Normalized conductance (Gnorm) AMPA D611A + γ2,[2]; -100 mV,0.96 and 0.95 and 0.98
same,Normalized current (Inorm) AMPA D611A + γ2,[2]; -100 mV,-1.00
same,"h, voltage dependency of block onset",[2]; GluA2 D611A + γ2,−58.8 ± 8.8 mV
same,"k, voltage dependency of block relief",[2]; GluA2 D611A + γ2,20.8 ± 3.7 mV
same,Kd,"[2]; GluA2 D611A + γ2, 30 µM internal Spm, 10 mM glutamate, read-out: Kd(0mV)",169 ± 54.6 µM
